Assay results taken from paper PMC4431585, “Identification and Characterization of a Small-Molecule Inhibitor of Death-Associated Protein Kinase 1” (Chembiochem, 2014).
“Also recorded” adds a separate entry of the source.

Tests used:
DAPK1 [1] = biological target: T1, DAPK1 (Homo sapiens, UniProt P53355); experiment: Caliper microfluidics capillary electrophoresis high-throughput enzymatic assay for DAPK1; type: biochemical
T1 construct: First the catalytic domain of DAPK1 (residues 1–285) was cloned,[14] expressed in Escherichia coli, and purified; made in house; host or cells: Escherichia coli
Description: For this, we established a high-throughput enzymatic screening assay for DAPK1. […] This peptide was used in a Caliper microfluidics capillary electrophoresis assay, which separates phosphorylated peptide product from the non-phosphorylated peptides in microcapillaries. The fluorescently labeled peptide enabled quantification in real time and thus determination of reaction velocities.

PIM1 = PIM1 (Homo sapiens, UniProt P11309); experiment: Kinase selectivity screening, PIM1; type: biochemical
Description: (§1) Compound 6 was tested in primary screening against a number of other kinases (SRC, BLK, AKT3, JAK2, PAK4, PAK7, PIM1, PIM2, CAMKI, and CAMKII); 60 % inhibition at 10 μM compound was used as the cut-off limit. […] Thus 6 was clearly an interesting compound.

SRC = SRC (Homo sapiens, UniProt P12931); experiment: Kinase selectivity screening, SRC; type: biochemical
Description: as §1

PAK7 = PAK7 (Homo sapiens, UniProt Q9P286); experiment: Kinase selectivity screening, PAK7; type: biochemical
Description: as §1

[2] = biological target: T2, catalytic domain of DAPK1 (residues 1–285) (Homo sapiens, UniProt P53355); experiment: Isothermal titration calorimetry (ITC); type: binding; details: n=4, read-out: equilibrium dissociation constant (Kd)
T2 construct: First the catalytic domain of DAPK1 (residues 1–285) was cloned,[14] expressed in Escherichia coli, and purified; made in house; host or cells: Escherichia coli
Description: as §1
Figure 3 Representative ITC of the catalytic domain of DAPK1 (residues 1–285) into 6.

JAK2 = JAK2 (Homo sapiens, UniProt O60674); experiment: Kinase selectivity screening, JAK2; type: biochemical
Description: as §1

CAMKII [3] = experiment: Kinase selectivity primary screening, CAMKII; type: biochemical; details: 60 % inhibition at 10 μM compound as cut-off limit
Description: as §1

DAPK1 [4] = biological target: T1, DAPK1; experiment: In vitro phosphorylation assay with DAPK1 (analytical HPLC); type: biochemical; details: for phosphorylation by DAPK1 (peptide as substrate): peptide 50 μM, ATP 100 μM, n=3
Excerpt: CaMKII and DAPK1 share a number of notable structural and functional properties. In particular both kinases harbor a calmodulin-binding sequence and an autoregulatory domain (ARD) next to the catalytic domain and are therefore regulated by calmodulin (or proteins with calmodulin-like domains).[10] There are also notable differences between the two kinases, for example DAPK1 is active only in its non-phosphorylated form,[11] whereas activation of CaMKII is more complex.[12] […] Thus it is proposed that phosphorylation of Ser1303 and co-localization are responsible for the regulation of calcium influx by NMDA receptors (Figure 1). To investigate the mechanistic details of DAPK1/NMDA receptor interactions further, including differences between GluN2A and GluN2B, we used in vitro phosphorylation assays. First the catalytic domain of DAPK1 (residues 1–285) was cloned,[14] expressed in Escherichia coli, and purified; the reference substrate Peptide38[2d] ([…]) and the 13-mer peptide N2B13 (1, GluN2B1292–1304, […]; Figure 2 A) were prepared. […] Thus, clearly Ser1303 in 1 is not phosphorylated by DAPK1 in vitro.
(§2) Figure 2 Comparison of peptide substrates containing Ser1303 (GluN2B) or Ser1291 (GluN2A). A) Alignment of peptides used in in vitro phosphorylation studies. B) Phosphorylation by DAPK1. C) Phosphorylation by CaMKII. Control substrates are shown with dashed lines. Degrees of phosphorylation were assessed by analytical HPLC (n=3, mean±SD). Concentration: peptide 50 μM, ATP 100 μM, kinase concentration was adjusted to fit the timescale. For further details see the Supporting Information.
(§3) This prompted us to examine related peptides derived from GluN2B and GluN2A (Figure 2 A) and we compared in vitro phosphorylation of these peptides by using both recombinant DAPK1 and CaMKII. […] Next we studied the corresponding 13- and 23-mer GluN2A peptides, N2A13 (4, GluN2A1280–1292, […]) and N2A23 (5, GluN2A1280–1302, […]); for both, Ser1291 corresponds to Ser1303 in GluN2B.

CAMKII [5] = experiment: In vitro phosphorylation assay with CaMKII (analytical HPLC); type: biochemical; details: peptide 50 μM, ATP 100 μM, n=3
Description: as §2, §3

T1 sequence (P53355 1-285): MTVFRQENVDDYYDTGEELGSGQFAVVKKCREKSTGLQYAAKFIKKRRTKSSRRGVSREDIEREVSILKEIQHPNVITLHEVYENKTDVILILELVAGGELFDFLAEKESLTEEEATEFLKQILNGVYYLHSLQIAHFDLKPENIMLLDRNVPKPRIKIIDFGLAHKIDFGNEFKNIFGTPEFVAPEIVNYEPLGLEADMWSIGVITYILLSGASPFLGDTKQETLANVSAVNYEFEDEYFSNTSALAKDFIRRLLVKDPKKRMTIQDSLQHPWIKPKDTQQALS
Sequence of JAK2 (O60674 whole entry, species assumed): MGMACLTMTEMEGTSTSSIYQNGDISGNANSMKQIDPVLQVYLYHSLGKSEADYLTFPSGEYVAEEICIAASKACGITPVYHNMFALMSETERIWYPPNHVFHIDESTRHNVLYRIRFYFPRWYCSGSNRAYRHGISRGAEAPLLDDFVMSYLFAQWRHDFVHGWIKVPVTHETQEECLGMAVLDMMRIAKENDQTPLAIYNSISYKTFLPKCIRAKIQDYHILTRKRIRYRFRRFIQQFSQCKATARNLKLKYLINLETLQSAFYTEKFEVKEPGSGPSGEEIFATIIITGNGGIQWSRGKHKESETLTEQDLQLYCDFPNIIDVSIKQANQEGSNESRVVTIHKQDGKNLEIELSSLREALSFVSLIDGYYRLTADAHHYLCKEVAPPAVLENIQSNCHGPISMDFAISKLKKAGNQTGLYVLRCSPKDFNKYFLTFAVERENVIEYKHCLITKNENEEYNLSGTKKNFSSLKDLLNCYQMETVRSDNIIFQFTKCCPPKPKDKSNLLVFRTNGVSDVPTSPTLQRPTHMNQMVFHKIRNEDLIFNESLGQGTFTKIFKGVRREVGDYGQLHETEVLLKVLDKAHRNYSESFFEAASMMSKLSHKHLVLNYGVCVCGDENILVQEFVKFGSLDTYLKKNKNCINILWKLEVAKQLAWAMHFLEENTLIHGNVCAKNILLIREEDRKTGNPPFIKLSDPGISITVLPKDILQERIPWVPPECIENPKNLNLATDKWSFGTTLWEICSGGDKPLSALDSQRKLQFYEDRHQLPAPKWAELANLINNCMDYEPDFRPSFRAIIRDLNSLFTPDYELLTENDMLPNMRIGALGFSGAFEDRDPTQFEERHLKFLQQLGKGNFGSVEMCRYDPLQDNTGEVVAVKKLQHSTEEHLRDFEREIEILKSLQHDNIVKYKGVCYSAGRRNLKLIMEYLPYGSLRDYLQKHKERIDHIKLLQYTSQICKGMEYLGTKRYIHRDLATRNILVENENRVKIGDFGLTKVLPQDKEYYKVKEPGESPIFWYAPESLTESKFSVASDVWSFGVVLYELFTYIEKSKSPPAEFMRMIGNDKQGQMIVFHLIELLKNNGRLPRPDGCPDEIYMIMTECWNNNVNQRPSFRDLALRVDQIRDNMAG
Sequence of SRC (P12931 whole entry, species assumed): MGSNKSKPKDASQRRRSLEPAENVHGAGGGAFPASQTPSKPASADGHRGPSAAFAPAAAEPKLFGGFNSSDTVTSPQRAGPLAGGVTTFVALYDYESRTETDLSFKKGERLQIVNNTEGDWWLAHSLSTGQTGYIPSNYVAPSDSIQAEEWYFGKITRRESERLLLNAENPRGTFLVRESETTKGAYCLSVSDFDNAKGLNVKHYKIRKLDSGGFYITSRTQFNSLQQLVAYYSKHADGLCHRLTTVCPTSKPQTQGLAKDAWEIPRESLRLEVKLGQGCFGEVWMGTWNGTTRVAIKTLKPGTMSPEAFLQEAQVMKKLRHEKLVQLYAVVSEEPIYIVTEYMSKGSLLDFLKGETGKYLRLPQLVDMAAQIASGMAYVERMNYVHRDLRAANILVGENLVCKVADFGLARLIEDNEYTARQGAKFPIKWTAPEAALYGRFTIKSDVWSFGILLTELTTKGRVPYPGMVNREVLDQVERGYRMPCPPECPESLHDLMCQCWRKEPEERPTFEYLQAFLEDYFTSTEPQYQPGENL
T2 sequence (P53355 1-285): as the sequence (P53355 1-285) above
Sequence of PIM1 (P11309 whole entry, species assumed): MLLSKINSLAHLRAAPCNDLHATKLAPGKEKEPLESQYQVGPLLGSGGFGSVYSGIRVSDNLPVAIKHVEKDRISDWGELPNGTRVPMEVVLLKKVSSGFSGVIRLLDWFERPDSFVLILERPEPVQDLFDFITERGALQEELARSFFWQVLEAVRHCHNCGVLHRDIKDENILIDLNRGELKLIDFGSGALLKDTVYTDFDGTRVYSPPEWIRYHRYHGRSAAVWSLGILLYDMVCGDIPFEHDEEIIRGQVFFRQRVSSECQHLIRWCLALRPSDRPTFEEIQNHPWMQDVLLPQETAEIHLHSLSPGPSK
Sequence of PAK7 (Q9P286 whole entry, species assumed): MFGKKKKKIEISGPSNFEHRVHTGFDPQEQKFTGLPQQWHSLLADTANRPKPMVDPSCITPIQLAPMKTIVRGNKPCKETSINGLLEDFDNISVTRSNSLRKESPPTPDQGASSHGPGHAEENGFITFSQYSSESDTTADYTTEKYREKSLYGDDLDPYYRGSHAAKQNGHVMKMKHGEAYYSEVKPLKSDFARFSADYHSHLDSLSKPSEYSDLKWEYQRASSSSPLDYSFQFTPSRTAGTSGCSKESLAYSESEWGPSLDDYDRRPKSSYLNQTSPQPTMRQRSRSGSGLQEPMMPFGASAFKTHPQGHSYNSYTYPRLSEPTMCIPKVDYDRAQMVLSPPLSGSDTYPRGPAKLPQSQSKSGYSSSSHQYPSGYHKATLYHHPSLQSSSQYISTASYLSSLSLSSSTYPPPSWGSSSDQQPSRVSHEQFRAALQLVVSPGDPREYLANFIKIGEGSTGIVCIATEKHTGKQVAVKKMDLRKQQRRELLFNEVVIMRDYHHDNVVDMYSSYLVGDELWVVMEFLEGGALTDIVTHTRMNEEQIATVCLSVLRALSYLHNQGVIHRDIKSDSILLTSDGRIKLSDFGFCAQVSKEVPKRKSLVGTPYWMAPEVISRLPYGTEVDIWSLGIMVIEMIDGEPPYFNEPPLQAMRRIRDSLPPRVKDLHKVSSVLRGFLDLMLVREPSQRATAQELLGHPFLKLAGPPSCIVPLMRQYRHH

| Compound | phosphorylation by CaMKII (peptide as substrate) (CAMKII [5]) | phosphorylation by DAPK1 (peptide as substrate) (DAPK1 [4]) | further results |
| --- | --- | --- | --- |
| Nc1ncnc2c1ncn2[C@@H]1O[C@H](COP(=O)(O)OP(=O)(O)OP(=O)(O)O)[C@@H](O)[C@H]1O [ATP] | – | – | Km (DAPK1 [1]; DAPK1, read-out: Km for ATP): 1.24 µM |
| COc1cc(-c2ccc3ncc(-c4cccc(C(=O)NCCN(C)C)c4)n3n2)ccc1O [Compound 6] | – | – | IC50 (DAPK1 [1]; DAPK1, Caliper assay, 5FAM-Peptide38 substrate, ATP approximately 2×Km): 247 nM; IC50 (PIM1): 1600 nM; IC50 (SRC): 150 nM; IC50 (PAK7): 5600 nM; Kd [2]: 240 ± 90 nM; IC50 (JAK2): 1800 nM; primary screening (CAMKII [3]): did not to pass the primary screening; inhibition in the in vitro phosphorylation assay (DAPK1 [4]; DAPK1): showed inhibition |
| KKNRKKNRNKLRRQHAYDTFVDLQKEE [Peptide 3, N2B23 with Ser1303 substituted with Ala] | neither the longer GluN2B peptide, N2B23 (2), nor its Ala mutant, 3, was phosphorylated | prevented phosphorylation | – |
| KKNRKKNRNKLRRQHSYDTFVDLQKEE [Peptide 2, 23-mer GluN2B peptide with ten additional C-terminal amino acids] | neither the longer GluN2B peptide, N2B23 (2), nor its Ala mutant, 3, was phosphorylated | phosphorylation to a degree similar to that for the reference substrate | – |
| KKNRNKLRQHSY [Peptide 1, 13-mer peptide N2B13, GluN2B1292–1304] | phosphorylated in a similar manner | strongly repressed | inhibitory effect on phosphorylation of peptide 2 (DAPK1 [4]; DAPK1, in vitro, data not shown): no in vitro inhibitory effect; also recorded: did not observe any effect |
| KKRPQRRYSNVF [peptide38, reference compound] | – | excellent substrate | – |
| QKNKLRISRQHSY [Peptide 4, 13-mer GluN2A peptide] | phosphorylated at a similar rate and to the same degree as the control peptide | none of these peptides was phosphorylated | – |
| QKNKLRISRQHSYDNIVDKPREL [Peptide 5, 23-mer GluN2A peptide] | phosphorylated at a similar rate and to the same degree as the control peptide | none of these peptides was phosphorylated | – |
